Results: PubChem BioAssay AID179 (DTP/NCI, 2004)
Active and inactive are the calls of the source.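 Rule for the calls: active = compounds giving half or more protection of infected cells from virus-caused growth loss, again on retest; inactive = the rest.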 Where a SMILES comes first, the peptide text is derived from it.

Tested on: CEM cells HIV-1 protection, formazan growth assay
Test: NCI AIDS Antiviral Assay
Conditions: for IC50: measured here: growth of uninfected CEM cells
Method in brief: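 Category rules: moderately active means at least 50% protection on retest, and confirmed active means 100% protection reproducibly. The underlying data came from a formazan growth assay in HIV-1-infected CEM cells.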

| SMILES | EC50 [µM] | IC50 [µM] | outcome |
| --- | --- | --- | --- |
| CC(=O)O[C@H]1CC[C@H]2[C@@H]3[C@H](C)CC4=CC(=O)CCC4[C@H]3CC[C@]12C (some centres not stated) | > 200 | 69.2 |  |
| O=C(c1nsc(Cl)c1Cl)N1CCCCC1 | > 200 | > 200 |  |
| CCN1C(=O)C(N2CCCCC2)S/C1=C\C(=O)O (configuration not stated) | > 933 | 457 |  |
| CCC1=C(OC)c2nccc(C)c2C(=O)C1=O |  |  | inactive |
| NC(=O)CC[C@H]1C(=O)N=C(N)N1C(=O)OCc1ccccc1 | > 200 | > 200 |  |
| Nc1nnc(-c2ccco2)c(-c2ccco2)n1 | > 200 | 186 |  |
| N#Cc1nc(COCCOCc2ccc(F)cc2)oc1N | > 200 | > 200 |  |
| COc1ccc(N2C(=O)[C@H]3[C@H]4CC(C(C)(C)C)CC[C@H]4c4c(n(C)c5ccccc45)[C@H]3C2=O)cc1 (some centres not stated) | > 15.1 | > 15.1 |  |
| CCCCCCC(=O)C/C(CCC(=O)N(Cc1ccccc1)Cc1ccccc1)=N\NC(N)=O | > 38 | > 38 |  |
| Cc1ccc(/C=C2\CN(C)CC3C2=NN(c2ccccc2)C3c2ccc(C)cc2)cc1 (configuration not stated) | > 200 | > 200 |  |
| CCOC(=O)CC[C@H](NC(=O)c1nc[nH]c1[N+](=O)[O-])C(=O)OCC | > 200 | > 200 |  |
| COC(=O)C1(NC(=O)C(CC(=O)OCc2ccccc2)NC(=O)OCc2ccccc2)CCCCCCC1 (configuration not stated) | > 200 | 11.7 |  |
| CC#CC#C/C=C1\C=CC2(OC=CC2OC(C)=O)O1 (configuration not stated) |  |  | inactive |
| COc1ccc(-c2nc(N3CCCC3)no2)cc1 | > 200 | 195 |  |
| CCCCC#C[I+]c1ccccc1 |  |  | inactive |
| Nc1c2ccccc2nc2c1ccc1ncccc12 | > 200 | 6.46 |  |
| CN(C)CCNC(=O)c1cc(NC(=O)c2cc(NC(=O)CC/C=C3/[C@@H]4CC[C@H]3N=N4)cn2C)cn1C | > 200 | > 200 |  |
| O=C1CC2(CCNCC2)C(=O)N1N1CCOCC1 | > 200 | > 200 |  |
| O=CC1=CCC2c3[nH]c4ccccc4c3CCN2C1 (configuration not stated) | > 372 | 41.7 |  |
| CCS1=C(C(C)=O)C(=O)O[C@H](C)C1 (some centres not stated) | > 1230 | > 1230 |  |

| SMILES | EC50 [µM] | IC50 [µM] | outcome |
| --- | --- | --- | --- |
| CC(=O)Oc1c(Br)cc(-c2oc(-c3cc(Br)c(OC(C)=O)c(Br)c3)c3ccccc23)cc1Br | > 100 | 38.9 |  |
| Cc1ncc2c(n1)-c1ccccc1OC2O (configuration not stated) | > 200 | > 200 |  |
| COC1/C=C\OC2(C)Oc3c(C)c(O)c4c(O)c(c(/C=N\OCCO)c(O)c4c3C2=O)NC(=O)/C(C)=C\C=C/C(C)C(O)C(C)C(O)C(C)C(OC(C)=O)C1C (configuration not stated) | 16.2 | 126 |  |
| COc1ccc2nc3ccccc3c(NCCN(C)CCCl)c2c1 | > 20 | 1.32 |  |
| CCOC(=O)CC(C)CCO (configuration not stated) | > 1550 | > 1550 |  |
| C/C(=N\NC(N)=S)c1ccc(C2CCCCC2)cc1 |  |  | inactive |
| CN(C)CCCNc1ccnc2cc([N+](=O)[O-])ccc12 | > 200 | 12.9 |  |
| CCOC(=O)N1CCN(c2ccc3c(C)cc(C)nc3n2)CC1 | > 200 | > 200 |  |
| Nc1ncnc2nc(-c3ccc(C[P+](c4ccccc4)(c4ccccc4)c4ccccc4)cc3)[nH]c12 | > 200 | > 200 |  |
| O=C(Nc1ccccn1)Nc1cc(C(F)(F)F)ccc1Cl | > 200 | 182 |  |
| O=C(Nc1ccc2c(O)c(N=Nc3ccc(S(=O)(=O)O)cc3)c(S(=O)(=O)O)cc2c1)Nc1ccc2c(O)c(N=Nc3ccc(S(=O)(=O)O)cc3)c(S(=O)(=O)O)cc2c1 | 8.91 | 110 |  |
| CC(C)[C@H]1CO[C@@H]2O[C@H](C)C(C)C(=O)N21 (some centres not stated) | > 1170 | > 1170 |  |
| C[C@]12CCNC(=O)C=C1CC[C@@H]1C2CC[C@@]2(C)C1CC[C@@H]2OC(=O)COc1ccc(N(CCCl)CCCl)cc1 (some centres not stated) |  |  | inactive |
| CCCCC1C=Cn2c(=O)oc3c(OC(C)C)c(C)c(O)c1c32 (configuration not stated) | > 200 | 2.51 |  |
| O=C1CCNC/C1=C\c1ccccc1 | > 6920 | 19.1 |  |
| CC1=C/C(=N\NC(N)=S)C(C(O)(C(F)(F)F)C(F)(F)F)C(C)(C)C1 (configuration not stated) | > 200 | 89.1 |  |
| CC(C)(C)C1CC[C@H](O)[C@H]([C@H](O)CC2CC(=O)N(c3ccccc3)C(=O)C2)C1 (some centres not stated) | > 200 | > 200 |  |
| Nc1ccc(S(=O)(=O)C(=O)O)cc1 | > 1230 | > 1230 |  |
| CN1N=C(c2ccncc2)OC1c1ccccc1F (configuration not stated) | > 200 | 129 |  |
| CC1(c2ccccc2)CCCC/C1=N/NC(N)=O (configuration not stated) | 105 | 129 |  |

| SMILES | EC50 [µM] | IC50 [µM] | outcome |
| --- | --- | --- | --- |
| CCCC1CC(=O)NC(=O)C1C(=O)OC(C)(C)C (configuration not stated) | > 200 | > 200 |  |
| COC(=O)[C@@H]1O[C@]12[C@@H](CO[Si](C)(C)C(C)(C)C)O[C@@H](n1cc(C)c(=O)[nH]c1=O)[C@@H]2O[Si](C)(C)C(C)(C)C | > 200 | 3.72 |  |
| COc1cc2c(cc1OC)CN1CCc3cc(OC)c(OC)cc3[C@@H]1C2 | > 200 | 145 |  |
| CC1=CC(/C=C(\C)CCCc2ccoc2)C2(OC(=O)C(C)=C2O)[C@H]2C1CC[C@@H]2C (some centres not stated) |  |  | inactive |
| COc1cc2c(cc1OCCCN1C(=O)c3cccc4cccc(c34)C1=O)N=C[C@@H]1CCCN1C2=O | 5.13 | 13.2 |  |
| CO[C@H]1/C=C/O[C@@]2(C)Oc3c(C)c(O)c4c(O)c(c(/C=N/N5C(C)CN(Cc6ccccc6)CC5C)c(O)c4c3C2=O)NC(=O)/C(C)=C\C=C\[C@H](C)[C@H](O)[C@@H](C)[C@@H](O)[C@@H](C)[C@H](OC(C)=O)[C@@H]1C (some centres not stated) | > 200 | 9.77 |  |
| COc1ccc(C(c2ccc3cccnc3c2O)c2oc(CO)cc(=O)c2O)cc1 (configuration not stated) |  |  | inactive |
| COc1ccc2c(c1)C(=O)C13CC(C(=O)OCc4ccccc4)C(OC(C)=O)(CCC21)C3 (configuration not stated) | > 72.4 | > 72.4 |  |
| C(=N\NC1=NCCN1)/c1cccc2cc3ccncc3nc12 | > 200 | 0.891 |  |
| O=C(O)COc1ccc(C(=O)/C(SS/C(C(=O)c2ccc(OCC(=O)O)c(Cl)c2Cl)=C2\C=C(c3ccccc3Cl)SS2)=C2/C=C(c3ccccc3Cl)SS2)c(Cl)c1Cl | > 35.5 | > 35.5 |  |
| CC1=NN(C(=O)c2ccc(Cl)cc2)C(=O)/C1=C/c1cccc(O)c1 | > 7.94 | > 7.94 |  |
| O=C1O[C@H](COC(=O)c2ccccc2)[C@@H](OC(=O)c2ccccc2)C=C1OC(=O)c1ccccc1 | > 200 | 20.4 |  |
| C(=C\c1ccc2ccccc2n1)/c1cccnc1 | > 214 | 12 |  |
| Oc1[nH]c(=S)[nH]c1/C=C1/C(c2ccccc2)=Nc2ccccc21 | > 200 | 9.33 |  |
| O=C1NC2OC(CO)C(O)C(O)C2O1 (configuration not stated) | > 200 | > 200 |  |
| Cc1ccc(N=N/C(=N/NC(=O)c2cc(Cl)ccc2O)c2ccc(N(CCC#N)CCC#N)cc2C)cc1 | > 200 | 10.7 |  |
| COc1cc(CC(C(=O)OC(C)(C)C)C(=O)OC(C)(C)C)c(NC(C)=O)c(OC)c1OC | > 200 | > 200 |  |
| O=C(O)c1ccccc1C(=O)c1ccccc1 | > 200 | > 200 |  |
| COc1ccc(-c2cc(Cc3cccs3)c(=O)[nH]n2)cc1 |  |  | inactive |
| NCCCCC(NC(=O)OCc1ccccc1)C(=O)NCC(N)=O (configuration not stated) (HELM PEPTIDE1{[O=C(OCc1ccccc1)[*:2]].[NCCCCC(N[*:1])C(=O)[*:2]].G.[am]}$$$$V2.0) | > 200 | > 200 |  |
